The test system of one assay is gel-filtered platelets. Kind of assay: In vitro inhibition of thrombin-induced gel-filtered platelet aggregation. The format is cell-based. Conditions: human gel-filtered platelets, agonist thrombin 50 μL of 1 unit/mL, read-out: Thrmb IC50 (Thrombin-induced aggregation of gel-filtered platelets). The method in brief: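 Gel-filtered (Sepharose 2B) human platelets from citrated PRP, 2×10^7 per sample, in Tyrode's buffer pH 7.4 with BSA and added calcium, preincubated with test compound. Aggregation induced by thrombin (50 μL of 1 unit/mL) and followed as light transmission over 3 min. Inhibition is taken relative to control-treated platelets.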

The target of assay [1] is T1, thrombin receptor (PAR-1) (Homo sapiens, UniProt P25116).
T1 construct: CHRF membranes (Jones, Biochim. Biophys. Acta 1992, 1136, 272) are thawed from −70° C; endogenous in cells; host or cells: CHRF cell membranes
T1 sequence (P25116 22-425): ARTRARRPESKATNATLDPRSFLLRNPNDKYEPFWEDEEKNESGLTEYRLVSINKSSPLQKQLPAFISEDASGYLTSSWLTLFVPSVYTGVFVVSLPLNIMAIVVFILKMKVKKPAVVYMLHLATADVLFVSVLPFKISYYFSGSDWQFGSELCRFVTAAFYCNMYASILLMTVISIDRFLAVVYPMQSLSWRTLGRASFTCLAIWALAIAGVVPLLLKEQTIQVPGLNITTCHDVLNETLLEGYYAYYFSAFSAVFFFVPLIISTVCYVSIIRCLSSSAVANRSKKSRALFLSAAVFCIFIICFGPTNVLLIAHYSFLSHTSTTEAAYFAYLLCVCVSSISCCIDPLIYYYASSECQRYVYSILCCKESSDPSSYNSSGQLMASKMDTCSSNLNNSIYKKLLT
Kind of assay: In vitro thrombin receptor binding assay (CHRF membranes). Conditions: tritiated 721-40 radioligand, read-out: Bndg IC50 (Thrombin receptor binding). The method in brief:
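CHRF cell membranes incubated 30 min with tritiated peptide agonist 721–40 and compound at 3.7 μg/mL final (0.6% DMSO) in HEPES/MgCl2/BSA buffer. Nonspecific binding defined with unlabeled 721–40; bound radioactivity counted after filtration onto PEI-treated filters.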

The source of these data is US7183252B2, “Indole peptidomimetics as thrombin receptor antagonists” (Ortho-McNeil Pharmaceutical, Inc., priority 1999, dated 2007).

Like-named read-outs stand apart in the source and are kept apart here.

The IC50 is the midpoint of a concentration-inhibition curve.

As to `N=C(N)NCCC[C@H](NC(=O)[C@H](Cc1ccc([N+](=O)[O-])cc1)NC(=O)Nc1ccc2c(CN3CCCC3)cn(Cc3ccc(F)cc3)c2c1)C(=O)NCc1ccccc1` [Compound 49], the IC50 in the assay with gel-filtered platelets (Platelet) came to 6.1 µM; in assay [1], 1 µM.
As for `CCN(CC)Cc1cn(CCCc2ccccc2)c2cc(NC(=O)N[C@@H](Cc3ccc(F)c(F)c3)C(=O)N[C@@H](CCCNC(=N)N)C(=O)NCc3ccccc3)ccc12` [Compound 75], the IC50 with gel-filtered platelets (Platelet) turned out to be 2.2 µM; in assay [1] it was 0.23 µM.
With `CC(=N)NCCNC(=O)[C@H](Cc1ccncc1)NC(=O)[C@H](Cc1ccc(Cl)cc1)NC(=O)Nc1ccc2c(CN3CCCC3)cn(Cc3c(Cl)cccc3Cl)c2c1` [Compound 139], the IC50 in the assay on gel-filtered platelets (Platelet) was 0.33 µM; in assay [1], 1 µM.
For `NCC[C@H](NC(=O)[C@H](Cc1ccc(F)c(F)c1)NC(=O)Nc1cccc2c(CN3CCCC3)cn(Cc3c(Cl)cccc3Cl)c12)C(=O)NCc1ccccc1` [Compound 167] the same measures were 8.5 µM and 67.6 µM.
For the compound `CN(C)CCNC(=O)[C@H](CCCN)NC(=O)[C@H](Cc1ccc(F)c(F)c1)NC(=O)Nc1ccc2c(CN3CCCC3)cn(Cc3c(Cl)cccc3Cl)c2c1` [Compound 126], the IC50 in the assay on gel-filtered platelets (Platelet) is 0.46 µM; in assay [1], 1.5 µM.
For `C[C@@H](NC(=O)[C@H](CCN)NC(=O)[C@H](Cc1ccc(F)c(F)c1)NC(=O)Nc1ccc2c(CN3CCCC3)cn(Cc3c(Cl)cccc3Cl)c2c1)c1ccccc1` [Compound 157], the IC50 came out at 0.66 µM with gel-filtered platelets and 0.48 µM in assay [1].
For the compound `N=C(N)NCCC[C@H](NC(=O)[C@H](Cc1ccc2ccccc2c1)NC(=O)Nc1ccc2c(CN3CCCC3)cn(Cc3c(Cl)cccc3Cl)c2c1)C(=O)NCc1ccccc1` [Compound 38], the results for the IC50 (with gel-filtered platelets (Platelet); in assay [1]) were 2.5 µM and 33.5 µM, respectively.
For `COc1ccc(C[C@H](NC(=O)Nc2ccc3c(c2)c(CN2CCCCC2)cn3Cc2ccc(F)cc2)C(=O)N[C@@H](CCCNC(=N)N)C(=O)NCc2ccccc2)cc1` [Compound 162], the IC50 came out at 13 µM in the assay on gel-filtered platelets (Platelet) and 5.3 µM in assay [1].
With `CC(C)NCCCC[C@H](NC(=O)[C@H](Cc1ccc(F)c(F)c1)NC(=O)Nc1ccc2c(CN3CCCCC3)cn(Cc3c(Cl)cccc3Cl)c2c1)C(=O)NCc1ccccc1` [Compound 67], the figures for the IC50 (in the assay on gel-filtered platelets (Platelet); in assay [1]) were 0.42 µM and 0.45 µM, respectively.
For `O=C(Nc1ccc2c(CN3CCCC3)cn(Cc3c(Cl)cccc3Cl)c2c1)N[C@@H](Cc1ccc(F)c(F)c1)C(=O)N[C@@H](CCCCNC(=O)c1cccnc1)C(=O)NCc1ccccc1` [Compound 68] the same measures were 4.7 µM and 6.5 µM.
With `CCOc1ccc(C[C@H](NC(=O)Nc2ccc3c(CN4CCCC4)cn(Cc4cccc(C)c4)c3c2)C(=O)N[C@@H](CCCNC(=N)N)C(=O)NCc2ccccc2)cc1` [Compound 42], the IC50 with gel-filtered platelets (Platelet) was 24.7 µM; in assay [1], 2 µM.
With `NC(N)=NCCC[C@H](NC(=O)[C@H](Cc1cccc(F)c1)NC(=O)Nc1ccc2c(CN3CCC(=O)CC3)cn(Cc3c(Cl)cccc3Cl)c2c1)C(=O)NCc1ccccc1` [Compound 88], the IC50 is 12.6 µM in the assay on gel-filtered platelets (Platelet) and 1.7 µM in assay [1].
On to `CCN(CC)Cc1cn(CCc2ccc(F)cc2)c2cc(NC(=O)N[C@@H](Cc3ccc(F)c(F)c3)C(=O)N[C@@H](CCCNC(=N)N)C(=O)NCc3ccccc3)ccc12` [Compound 76], for which the IC50 was 1.1 µM in the assay on gel-filtered platelets (Platelet) and 0.2 µM in assay [1].
The matching figures for `Cc1ccccc1Cn1c(Cl)c(CN2CCCC2)c2ccc(NC(=O)N[C@@H](Cc3cccc(F)c3)C(=O)N[C@@H](CCCN=C(N)N)C(=O)NCc3ccc(F)cc3)cc21` [Compound 173]: 2 µM and 0.76 µM.
For `N#Cc1ccc(C[C@H](NC(=O)Nc2ccc3c(CN4CCCC4)cn(Cc4c(Cl)cccc4Cl)c3c2)C(=O)N[C@@H](CCCNC(=N)N)C(=O)NCc2ccccc2)cc1` [Compound 52] the same measures were 0.48 µM and 5.3 µM.
As to `NCCNC(=O)CCNC(=O)[C@H](Cc1ccc(Cl)cc1)NC(=O)Nc1ccc2c(CN3CCCC3)cn(Cc3c(Cl)cccc3Cl)c2c1` [Compound 146], the IC50 worked out at 11.1 µM with gel-filtered platelets (Platelet) and 2.8 µM in assay [1].
